Laboratory results taken from PubChem BioAssay (NCI).
Values joined by “and” are separate entries in the source; they are usually repeats but may differ in a detail not shown here. Equal values may be shown once.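 Assay format: 96-well plates, 48-hour exposure. GI50 is the concentration that inhibits growth by half. TGI is the concentration that stops growth completely.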

Columns and labels:
Test in all cases: growth of human tumour cells (NCI), 48 h
786-0 renal = tested on: 786-0 renal
A498 renal = tested on: A498 renal
A549 NSCLC = tested on: A549 NSCLC
ACHN renal = tested on: ACHN renal
BT-549 breast = tested on: BT-549 breast
CAKI-1 renal = tested on: CAKI-1 renal
CCRF-CEM leukemia = tested on: CCRF-CEM leukemia
COLO 205 colon = tested on: COLO 205 colon
DU-145 prostate = tested on: DU-145 prostate
EKVX NSCLC = tested on: EKVX NSCLC
HCC-2998 colon = tested on: HCC-2998 colon
HCT-116 colon = tested on: HCT-116 colon
HCT-15 colon = tested on: HCT-15 colon
HL-60(TB) leukemia = tested on: HL-60(TB) leukemia
HOP-62 NSCLC = tested on: HOP-62 NSCLC
HOP-92 NSCLC = tested on: HOP-92 NSCLC
HS 578T breast = tested on: HS 578T breast
HT29 colon = tested on: HT29 colon
IGROV1 ovarian = tested on: IGROV1 ovarian
K-562 leukemia = tested on: K-562 leukemia
KM12 colon = tested on: KM12 colon
LOX IMVI melanoma = tested on: LOX IMVI melanoma
M14 melanoma = tested on: M14 melanoma
MALME-3M melanoma = tested on: MALME-3M melanoma
MCF7 breast = tested on: MCF7 breast
MDA-MB-231 breast = tested on: MDA-MB-231 breast
MDA-MB-435 = tested on: MDA-MB-435
MOLT-4 leukemia = tested on: MOLT-4 leukemia
NCI-H226 lung = tested on: NCI-H226 lung
NCI-H23 lung = tested on: NCI-H23 lung
NCI-H460 lung = tested on: NCI-H460 lung
NCI-H522 lung = tested on: NCI-H522 lung
NCI/ADR-RES ovarian = tested on: NCI/ADR-RES ovarian
OVCAR-3 ovarian = tested on: OVCAR-3 ovarian
OVCAR-4 ovarian = tested on: OVCAR-4 ovarian
OVCAR-5 ovarian = tested on: OVCAR-5 ovarian
OVCAR-8 ovarian = tested on: OVCAR-8 ovarian
PC-3 prostate = tested on: PC-3 prostate
RPMI-8226 leukemia = tested on: RPMI-8226 leukemia
RXF 393 renal = tested on: RXF 393 renal
SF-268 CNS = tested on: SF-268 CNS
SF-295 CNS = tested on: SF-295 CNS
SF-539 CNS = tested on: SF-539 CNS
SK-MEL-2 melanoma = tested on: SK-MEL-2 melanoma
SK-MEL-28 melanoma = tested on: SK-MEL-28 melanoma
SK-MEL-5 melanoma = tested on: SK-MEL-5 melanoma
SK-OV-3 ovarian = tested on: SK-OV-3 ovarian
SN12C renal = tested on: SN12C renal
SNB-19 CNS = tested on: SNB-19 CNS
SNB-75 CNS = tested on: SNB-75 CNS
SR leukemia = tested on: SR leukemia
SW-620 colon = tested on: SW-620 colon
T-47D breast = tested on: T-47D breast
TK-10 renal = tested on: TK-10 renal
U251 CNS = tested on: U251 CNS
UACC-257 melanoma = tested on: UACC-257 melanoma
UACC-62 melanoma = tested on: UACC-62 melanoma
UO-31 renal = tested on: UO-31 renal

SMILES: O=C(NNc1nc2cc(F)cc(F)c2n2cccc12)c1cccnn1
- GI50 (786-0 renal): 208 nM and 261 nM
- TGI (786-0 renal): 2460 nM and 6240 nM
- GI50 (A498 renal): 868 nM and 428 nM
- TGI (A498 renal): 4850 nM and 3080 nM
- GI50 (A549 NSCLC): 378 nM and 215 nM
- TGI (A549 NSCLC): 5720 nM and 3740 nM
- GI50 (ACHN renal): 164 nM and 165 nM
- TGI (ACHN renal): 4140 nM and 3170 nM
- GI50 (BT-549 breast): 520 nM and 291 nM
- TGI (BT-549 breast): 2260 nM and 9430 nM
- GI50 (CAKI-1 renal): 291 nM and 183 nM
- TGI (CAKI-1 renal): 4960 nM and 5280 nM
- GI50 (CCRF-CEM leukemia): 163 nM and 43.2 nM
- GI50 (COLO 205 colon): 533 nM
- TGI (COLO 205 colon): 5060 nM
- GI50 (DU-145 prostate): 507 nM and 371 nM
- TGI (DU-145 prostate): 6230 nM and 4080 nM
- GI50 (EKVX NSCLC): 350 nM and 164 nM
- TGI (EKVX NSCLC): 13300 nM and 3260 nM
- GI50 (HCC-2998 colon): 612 nM and 436 nM
- TGI (HCC-2998 colon): 11300 nM and 18000 nM
- GI50 (HCT-116 colon): 151 nM
- TGI (HCT-116 colon): 916 nM
- GI50 (HCT-15 colon): 124 nM and 48.3 nM
- TGI (HCT-15 colon): 13500 nM and > 100000 nM
- GI50 (HL-60(TB) leukemia): 765 nM and 259 nM
- GI50 (HOP-62 NSCLC): 206 nM and 67.7 nM
- TGI (HOP-62 NSCLC): 4770 nM and 5250 nM
- GI50 (HOP-92 NSCLC): 778 nM and 440 nM
- TGI (HOP-92 NSCLC): 8790 nM and 5340 nM
- GI50 (HS 578T breast): 3790 nM and 1130 nM
- TGI (HS 578T breast): 30000 nM and 36800 nM
- GI50 (HT29 colon): 725 nM and 475 nM
- TGI (HT29 colon): 30000 nM and 27200 nM
- GI50 (IGROV1 ovarian): 210 nM and 211 nM
- TGI (IGROV1 ovarian): 4680 nM and 3640 nM
- GI50 (K-562 leukemia): 817 nM and 263 nM
- GI50 (KM12 colon): 507 nM and 185 nM
- TGI (KM12 colon): 30000 nM and > 100000 nM
- GI50 (LOX IMVI melanoma): 295 nM
- TGI (LOX IMVI melanoma): 3570 nM
- GI50 (M14 melanoma): 164 nM and 179 nM
- GI50 (MALME-3M melanoma): 784 nM and 1020 nM
- TGI (MALME-3M melanoma): 6180 nM and 5970 nM
- GI50 (MCF7 breast): 453 nM and 260 nM
- TGI (MCF7 breast): 5670 nM and 2560 nM
- GI50 (MDA-MB-231 breast): 820 nM and 784 nM
- TGI (MDA-MB-231 breast): 10300 nM and > 100000 nM
- GI50 (MDA-MB-435): 1270 nM and 599 nM
- TGI (MDA-MB-435): 30000 nM and 15800 nM
- GI50 (MOLT-4 leukemia): 186 nM and 167 nM
- GI50 (NCI-H226 lung): 341 nM and 799 nM
- TGI (NCI-H226 lung): 5640 nM and 7420 nM
- GI50 (NCI-H23 lung): 575 nM
- TGI (NCI-H23 lung): > 100000 nM
- GI50 (NCI-H460 lung): 147 nM and 61 nM
- TGI (NCI-H460 lung): 3470 nM and 1280 nM
- GI50 (NCI-H522 lung): 890 nM and 254 nM
- GI50 (NCI/ADR-RES ovarian): 270 nM and 161 nM
- TGI (NCI/ADR-RES ovarian): 3850 nM and 2190 nM
- GI50 (OVCAR-3 ovarian): 234 nM and 128 nM
- TGI (OVCAR-3 ovarian): 5190 nM and 10700 nM
- GI50 (OVCAR-4 ovarian): 212 nM
- TGI (OVCAR-4 ovarian): 8520 nM
- GI50 (OVCAR-5 ovarian): 847 nM and 1390 nM
- TGI (OVCAR-5 ovarian): 30000 nM and 31600 nM
- GI50 (OVCAR-8 ovarian): 362 nM and 246 nM
- TGI (OVCAR-8 ovarian): 30000 nM and > 100000 nM
- GI50 (PC-3 prostate): 478 nM and 296 nM
- TGI (PC-3 prostate): 30000 nM and > 100000 nM
- GI50 (RPMI-8226 leukemia): 716 nM and 286 nM
- TGI (RPMI-8226 leukemia): 30000 nM and 3060 nM
- GI50 (RXF 393 renal): 865 nM and 242 nM
- TGI (RXF 393 renal): 3610 nM and 2170 nM
- GI50 (SF-268 CNS): 359 nM and 209 nM
- TGI (SF-268 CNS): 30000 nM and 11400 nM
- GI50 (SF-295 CNS): 175 nM and 73.5 nM
- TGI (SF-295 CNS): 4600 nM and 2140 nM
- GI50 (SF-539 CNS): 396 nM and 314 nM
- TGI (SF-539 CNS): 3870 nM and 3350 nM
- GI50 (SK-MEL-2 melanoma): 1330 nM and 1170 nM
- TGI (SK-MEL-2 melanoma): 19800 nM and 26200 nM
- GI50 (SK-MEL-28 melanoma): 517 nM and 528 nM
- TGI (SK-MEL-28 melanoma): 12500 nM and 21600 nM
- GI50 (SK-MEL-5 melanoma): 504 nM and 312 nM
- TGI (SK-MEL-5 melanoma): 4950 nM and 2390 nM
- GI50 (SK-OV-3 ovarian): 441 nM and 344 nM
- TGI (SK-OV-3 ovarian): 6480 nM and 6700 nM
- GI50 (SN12C renal): 500 nM and 554 nM
- TGI (SN12C renal): 16400 nM and 19900 nM
- GI50 (SNB-19 CNS): 409 nM and 337 nM
- TGI (SNB-75 CNS): 17900 nM and 7790 nM
- GI50 (SR leukemia): 147 nM and 43.1 nM
- GI50 (SW-620 colon): 363 nM and 289 nM
- TGI (SW-620 colon): 21100 nM and > 100000 nM
- GI50 (T-47D breast): 632 nM and 322 nM
- TGI (T-47D breast): 11300 nM and 4180 nM
- GI50 (TK-10 renal): 792 nM and 317 nM
- TGI (TK-10 renal): 20800 nM and 11300 nM
- GI50 (U251 CNS): 241 nM and 113 nM
- TGI (U251 CNS): 13300 nM and 4420 nM
- GI50 (UACC-257 melanoma): 868 nM and 395 nM
- TGI (UACC-257 melanoma): 3410 nM and 3630 nM
- GI50 (UACC-62 melanoma): 305 nM and 329 nM
- GI50 (UO-31 renal): 118 nM and 51.9 nM
- TGI (UO-31 renal): 3630 nM and 1770 nM
